Data as given in PubChem BioAssay AID2765 (Broad Institute, 2010).
pEC50: −log10 of the molar value. Calls of active or inactive are those of the source.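 Rule for the calls: active = half-maximal concentration for the rise in caspase light signal at or below ten times the top tested dose; inconclusive = flat fit between 30% and 70% activity, or unreliable curve fit; inactive = the rest.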

Tested on: MEF A1-2A-BIM cells, caspase 3/7 luminescence, 3 h
Assay: inducers of caspase signal in A1-dependent MEFs – cell-based, luminescence, retest, A1 inhibitor project, dose response (AID 2765)

Compound	EC50	pEC50
NC(=O)c1ccc(NC(=O)CSc2nnc(C3CC3)n2C2CC2)cc1	> 35 µM (inactive)	–
Cc1cccc(NC(=O)CSc2nc(C)c(CC(=O)c3ccc(Br)cc3)c(C)c2C#N)c1C	> 35 µM (inactive)	–
COc1cc2c(cc1OC)C(C)N(C(=O)c1cc3c(s1)-c1ccccc1OC3)CC2 (centres undefined)	> 35 µM (inactive)	–
COc1ccc(C(O)Cc2nccn2C)cc1 (centres undefined)	> 35 µM (inactive)	–
CCCOC(=O)Nc1ccc([As](=O)(O)O)cc1NC(=O)OCCC	> 35 µM (inactive)	–
CCSc1nc(NCCN(C)C)c2c3c(sc2n1)COC(C)(CC)C3 (centres undefined)	> 35 µM (inactive)	–
CC(C)(C)C1C/C(=C/c2ccccn2)C(=O)/C(=C/c2ccccn2)C1 (centres undefined)	–	5.07
O=C(N/N=C/c1ccccc1O)C1CC(=O)N(c2ccc(F)cc2)C1 (centres undefined)	> 35 µM (inactive)	–
Cc1ccc(NC(=O)Cn2c(=O)cnc3ccccc32)cc1S(=O)(=O)N1CCOCC1	> 35 µM (inactive)	–
Cc1cc(C)n(CCC(=O)N/N=C/c2ccc(Cl)c([N+](=O)[O-])c2)n1	> 35 µM (inactive)	–
Cc1ccc(NC(=S)N(CCCN2CCCC2)Cc2cccn2Cc2ccc(Cl)cc2)cc1Cl	> 35 µM (inactive)	–
CCS(=O)(=O)Nc1ccc(Cc2ccncc2)cc1	> 35 µM (inactive)	–
Cc1ccc(NC(=O)c2ccc(Cl)c(N3C(=O)C=CC3=O)c2)cc1	> 35 µM (inactive)	–
Cc1cc(C)cc(C(=O)N2CC(=O)Nc3ccccc32)c1	> 35 µM (inactive)	–
O=C(NCc1ccccc1Br)c1cccc2c1C(=O)c1ccc(-c3ccc(OC(F)(F)F)cc3)cc1S2(=O)=O	> 35 µM (inactive)	–
C[C@H](CO)N1C[C@H](C)[C@H](CN(C)Cc2ccc(-c3ccccc3)cc2)Oc2ccc(NS(=O)(=O)c3ccccc3)cc2CC1=O	> 35 µM (inactive)	–
CCOc1ccc(OCC(=O)N(CCC2=CCCCC2)c2c(N)n(Cc3ccccc3)c(=O)[nH]c2=O)cc1	–	4.72
COc1ccc(NC(=O)/C(Cl)=C(/Cl)S(=O)Cc2ccc(C)cc2)cn1 (centres undefined)	> 35 µM (inactive)	–
Cc1ccc2c(c1)C(=O)C(=O)N2Cc1ccc(Cl)cc1	> 35 µM (inactive)	–
O=C(NCc1ccco1)/C(=C/c1ccc([N+](=O)[O-])cc1)NC(=O)c1ccco1	> 35 µM (inactive)	–
O=C(CCl)N=c1sccn1Cc1ccccc1Cl	> 35 µM (inactive)	–
CCOC(=O)COc1ccc(S(=O)(=O)N2CCN(c3ccc(OC)cc3)CC2)cc1	> 35 µM (inactive)	–
Cc1c(C(=O)c2ccccc2C(=O)O)sc2ccccc12	> 35 µM (inactive)	–
COc1ccc2[nH]c(=O)c(-c3nnn(-c4ccccc4)n3)cc2c1	> 35 µM (inactive)	–
O=C1C(=O)N(C/C=C/c2ccccc2)c2ccccc21	> 35 µM (inactive)	–
COC(=O)CSc1nc(N)c2c3c(sc2n1)C(c1ccccc1)SC(c1ccccc1)C3 (centres undefined)	> 35 µM (inactive)	–
Nc1c(C(=O)Nc2ccc(S(=O)(=O)N3CCCC3)cc2)sc2nc3ccc(OC(F)(F)F)cc3cc12	–	5.06

Compound	EC50	pEC50
CSc1ccc(CCNC(=O)CCc2nnc3ccc(NCCCN4CCCC4=O)nn23)cc1	> 35 µM (inactive)	–
O=C(NCCO)C(=O)Nc1cc2c3c(c1)CCN3C(=O)CC2	> 35 µM (inactive)	–
O=C(NC(Cc1ccccc1)C(=O)N1CCCCCC1)c1ccccc1 (centres undefined)	> 35 µM (inactive)	–
Cc1cc(C)n(S(=O)(=O)c2ccc(C)c(C)c2C)n1	> 35 µM (inactive)	–
COc1ccc(C[C@H]2NC[C@H](O)[C@H]2OC(C)=O)cc1	> 35 µM (inactive)	–
COC(=O)C1CSC(c2ccc(Cl)cc2)N1C(=O)c1ccccc1 (centres undefined)	> 35 µM (inactive)	–
O=C(Nc1ccc(S(=O)(=O)N2CCOCC2)cc1)c1ccco1	> 35 µM (inactive)	–
CC1CCN(CCCNC(=O)c2cn(C)c3ccc(S(=O)(=O)N4CCCC4)cc3c2=O)CC1	> 35 µM (inactive)	–
CCOC(=O)c1oc2ccccc2c1NC(=O)CN1CCN(C)CC1	> 35 µM (inactive)	–
COc1ccc(C(=O)Sc2ccc(Cl)cc2)cc1OC	> 35 µM (inactive)	–
COc1ccc(CC(=O)NCCN2CCOCC2)cc1	> 35 µM (inactive)	–
OCc1ccc(OCCCOc2cccc3cccnc23)cc1	> 35 µM (inactive)	–
O=C(/C=C/c1ccc(O)cc1)c1ccc(O)cc1O	> 35 µM (inactive)	–
OC(CNCC1COc2ccccc2O1)COc1ccc(Cl)cc1 (centres undefined)	> 35 µM (inactive)	–
CCOc1cccc(C2C(C(=O)c3ccc(C)o3)=C(O)C(=O)N2Cc2ccncc2)c1 (centres undefined)	> 35 µM (inactive)	–
COc1ccc(N2C(=O)CCC(C(=O)O)C2c2ccc(OC)c(OC)c2)cc1 (centres undefined)	> 35 µM (inactive)	–
COC(=O)c1ccc(CNC(=O)C2CCC(=O)N(CCc3ccccc3)C2)cc1 (centres undefined)	> 35 µM (inactive)	–
CC(C)OC(=O)CN1C(=O)S/C(=C/c2ccc(N3CCCCC3)o2)C1=O	> 35 µM (inactive)	–
O=C(NCc1ccc(/C=N\NC(=O)C(=O)Nc2ccccc2Br)o1)C(=O)Nc1ccccc1	> 35 µM (inactive)	–
COc1ccc2c(c1)[nH]c1c(=O)n(/N=C/C3C(C)C=C(C)CC3C)c(=O)[nH]c12 (centres undefined)	> 35 µM (inactive)	–
COc1ccc(S(=O)(=O)NC2CCCC2)cc1C(N)=O	> 35 µM (inactive)	–
Cc1cc(Br)c2c(c1)C1(OCCO1)C(=O)N2	> 35 µM (inactive)	–
CCOC(=O)CSC1=N/C(=C/c2ccc(-n3cncn3)cc2)C(=O)N1C(C)=O	–	4.59
Cc1cccc(NC(=O)CCC(=O)N/N=C/c2ccco2)c1C	> 35 µM (inactive)	–
COc1cc2sc(-c3ccc(S(C)(=O)=O)cc3)c(C(=O)NCCCCO)c2cc1OC	> 35 µM (inactive)	–
CCOC(=O)c1[nH]c2ccccc2c1NC(=S)Nc1cc(C)ccc1C	> 35 µM (inactive)	–
COc1ccccc1CCC(=O)Nc1ccc(S(=O)(=O)Nc2nccs2)cc1	> 35 µM (inactive)	–
